Measured values published in paper PMC8164657, “Intraoperative visualization of nerves using a myelin protein-zero specific fluorescent tracer” (EJNMMI Research, 2021).
Converted amounts (≈) assume the structure as drawn. Residues, ends and D or L forms follow the SMILES beside them. *: point of attachment. X1 = CC1(C)C(/C=C/C=C/C=C2/N(CCCCS(=O)(=O)O)c3ccc(S(=O)(=O)O)cc3C2(C)C)=[N+](CCCCCC(=O)NCCN2C(=O)CC(*)C2=O)c2ccc(S(=O)(=O)[O-])cc21; X2 = CC1(C)C(=C/C=C/C=C/C2=[N+](CCCCS(=O)(=O)O)c3ccc(S(=O)(=O)[O-])cc3C2(C)C)N(CCCCCC(=O)NCCN2C(=O)CC(*)C2=O)c2ccc(S(=O)(=O)O)cc21; X3 = O=C(O)CN(CCN(CCN(CC(=O)O)CC(=O)O)CC(=O)NCCN1C(=O)CC(*)C1=O)CC(=O)O

Legend:
[1] = biological target: T1, P0 (RT4 D6P2T Schwannoma cells) (Rattus norvegicus, UniProt P06907); test: Blocking experiment with P0Ab; format: cell-based; conditions: 5 µL of 1 mg/mL P0Ab one hour prior to tracer; N = 10; ImageJ quantification; p = 0.001
T1 construct: was performed using P0-expressing RT4 D6P2T cells; host or cells: RT4 D6P2T Schwannoma cells
T1 sequence (P06907 30-248): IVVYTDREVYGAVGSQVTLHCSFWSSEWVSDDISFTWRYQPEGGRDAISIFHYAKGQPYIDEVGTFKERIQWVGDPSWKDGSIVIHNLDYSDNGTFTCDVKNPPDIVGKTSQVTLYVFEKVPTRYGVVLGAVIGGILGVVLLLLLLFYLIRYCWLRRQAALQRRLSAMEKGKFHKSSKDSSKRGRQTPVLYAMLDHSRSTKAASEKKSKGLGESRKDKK
Procedure: (§1) To all samples, 1 mL medium containing 1 µM Cy5-P0_1–25, Cy5-P0_21–45, Cy5-P0_41–65, Cy5-P0_61–85, Cy5-P0_81–105, Cy5-P0_95–120, or Cy5-P0_101–125 was added at one hour prior to imaging (incubation at 4 °C; N = 3 per tracer). Peptide solutions were sonicated for 20 s prior to addition, in order to prevent aggregation of the peptides in solution. Cy5-functionalized derivatives of a P0-specific antibody (Cy5-P0Ab-H60), the extracellular portion of P0 (Cy5-P0ex) as well as a non-P0-specific peptide (Cy5-NP-41) and non-functionalized Cy5-Maleimide were used as controls (1 µM). A lysosomal (lysotracker green; 2 µL/mL, DND-26, Thermo Fisher) and nuclear stain (Hoechst 33342; 1 mg/mL, Thermo Fisher) were added as means to localize the cell nucleus and intracellular lysosomes. For blocking studies, 5 µL of a 1 mg/mL solution of non-functionalized P0Ab was added to the cells one hour prior to addition of Cy5-P0_101–125. The synthesis of the control compounds is described in the methods section of Additional file 1: Synthesis of control compounds.
(§2) In vitro and ex vivo fluorescence confocal images were acquired using a Leica SP8 WL at sequential settings and 10 × or 63 × magnification. […] For blocking studies, quantification of the fluorescence signal intensity (N = 10 for blocked and non-blocked) in the obtained images was performed using ImageJ according to previously described methods. […]

Biodistribution in mice = format: in vivo; conditions: mouse, CNS, total radioactivity; 10 MBq intravenous (tail vein), 4 h p.i.
Procedure: Synthesis and radiolabelling of DTPA-P0_101–125 with ^111In is described in Additional file 1: synthesis of control compounds. For quantitative assessment of the biodistribution of [^111In]In-DTPA-P0_101–125, 10 MBq of the labelled tracer was injected intravenously (tail vein). The percentage of the injected activity per gram of tissue (%IA/g) was assessed at 2 h post-injection as previously described. Excretion was defined as: (MBq present in animal at 24 h post-tracer administration/injected activity) * 100%.

[2] = test system: P0-expressing RT4 D6P2T myelinating Schwannoma cells; test: Fluorescence confocal microscopy staining of P0-expressing cells; format: cell-based; conditions: 1 µM, 1 h incubation at 4 °C, N = 3 per tracer
Procedure: Cells were trypsinized and seeded onto 35-mm culture dishes that contained a glass insert (MatTek co) on the day prior to the imaging experiment.
as §1, with “For blocking studies, 5 µL of a 1 mg/mL solution of non-functionalized P0Ab was added to the cells one hour prior to addition of Cy5-P0_101–125. The synthesis of the control compounds is described in the methods section of Additional file 1: Synthesis of control compounds.” left out
as §2

Solubility in H2O = format: physicochemical; conditions: water; saturated solution in H2O at r.t., centrifugation, absorption of supernatant (UV/Vis)
[3] = Lipophilicity in octanol/water (LogPo/w); format: physicochemical; conditions: read-out: Lipophilicity (o/w), LogPo/w
Procedure: (§3) spectrometer (Pharmacia Biotech).
(§4) Serum protein binding and LogP o/w
(§5) functionalized Cy5 were determined as previously described (7).
(§6) The stability towards glutathione of Cy5-

Serum protein binding = format: in vitro ADME
Procedure: as §3, §4, §5, §6

[4] = Stability towards glutathione; format: physicochemical
Procedure: as §3, §4, §5, §6

[5] = serum

SMILES: CC[C@H](C)[C@H](NC(=O)[C@H](CC(=O)O)NC(=O)[C@@H]1CCCN1C(=O)[C@@H]1CCCN1C(=O)[C@H](CC(N)=O)NC(=O)[C@H](CCCCN)NC(C)=O)C(=O)N[C@H](C(=O)NCC(=O)N[C@@H](CCCCN)C(=O)N[C@H](C(=O)N[C@@H](CO)C(=O)N[C@@H](CCC(N)=O)C(=O)N[C@H](C(=O)N[C@H](C(=O)N[C@@H](CC(C)C)C(=O)N[C@@H](Cc1ccc(O)cc1)C(=O)N[C@H](C(=O)N[C@@H](Cc1ccccc1)C(=O)N[C@@H](CCC(=O)O)C(=O)N[C@@H](CCCCN)C(=O)N[C@H](C(=O)N1CCC[C@H]1C(=O)N[C@H](C(=O)N[C@@H](CCCNC(=N)N)C(=O)N[C@@H](Cc1ccc(O)cc1)C(=O)N[C@@H](CSC1CC(=O)N(CCNC(=O)CCCCC[N+]2=C(/C=C/C=C/C=C3/N(CCCCS(=O)(=O)O)c4ccc(S(=O)(=O)O)cc4C3(C)C)C(C)(C)c3cc(S(=O)(=O)[O-])ccc32)C1=O)C(N)=O)[C@@H](C)O)C(C)C)C(C)C)[C@@H](C)O)C(C)C)[C@@H](C)O)C(C)C (stereo partly drawn) [Cy5-P0_101–125] (Ac-KNPPDIVGKTSQVTLYVFEKVPTRYC(X1)-NH2)
- Cy5-related fluorescence remaining after blocking with P0Ab [1]: 13.5 ± 7.1%

SMILES: CC[C@H](C)[C@H](NC(=O)[C@H](CC(=O)O)NC(=O)[C@@H]1CCCN1C(=O)[C@@H]1CCCN1C(=O)[C@H](CC(N)=O)NC(=O)[C@H](CCCCN)NC(C)=O)C(=O)N[C@H](C(=O)NCC(=O)N[C@@H](CCCCN)C(=O)N[C@H](C(=O)N[C@@H](CO)C(=O)N[C@@H](CCC(N)=O)C(=O)N[C@H](C(=O)N[C@H](C(=O)N[C@@H](CC(C)C)C(=O)N[C@@H](Cc1ccc(O)cc1)C(=O)N[C@H](C(=O)N[C@@H](Cc1ccccc1)C(=O)N[C@@H](CCC(=O)O)C(=O)N[C@@H](CCCCN)C(=O)N[C@H](C(=O)N1CCC[C@H]1C(=O)N[C@H](C(=O)N[C@@H](CCCNC(=N)N)C(=O)N[C@@H](Cc1ccc(O)cc1)C(=O)N[C@@H](CSC1CC(=O)N(CCNC(=O)CN(CCN(CC(=O)O)CC(=O)O)CCN(CC(=O)O)CC(=O)O)C1=O)C(N)=O)[C@@H](C)O)C(C)C)C(C)C)[C@@H](C)O)C(C)C)[C@@H](C)O)C(C)C (stereo partly drawn) [[^111In]In-DTPA-P0_101–125, metal not drawn] (Ac-KNPPDIVGKTSQVTLYVFEKVPTRYC(X3)-NH2)
- tissue uptake at 4 h (Biodistribution in mice): 0.12 ± 0.03 %ID/g

SMILES: C[N+]1=C(/C=C/C=C/C=C2/N(CCCCCC(=O)NCCN3C(=O)C=CC3=O)c3ccccc3C2(C)C)C(C)(C)c2ccccc21.[Cl-] [Cy5-Maleimide]
- staining of P0-expressing Schwannoma cells [2]: no staining was observed

SMILES: CC[C@H](C)[C@H](NC(=O)[C@H](CC(=O)O)NC(=O)[C@@H]1CCCN1C(=O)[C@@H]1CCCN1C(=O)[C@H](CC(N)=O)NC(=O)[C@H](CCCCN)NC(C)=O)C(=O)N[C@H](C(=O)NCC(=O)N[C@@H](CCCCN)C(=O)N[C@H](C(=O)N[C@@H](CO)C(=O)N[C@@H](CCC(N)=O)C(=O)N[C@H](C(=O)N[C@H](C(=O)N[C@@H](CC(C)C)C(=O)N[C@@H](Cc1ccc(O)cc1)C(=O)N[C@H](C(=O)N[C@@H](Cc1ccccc1)C(=O)N[C@@H](CCC(=O)O)C(=O)N[C@@H](CCCCN)C(=O)N[C@H](C(=O)N1CCC[C@H]1C(=O)N[C@H](C(=O)N[C@@H](CCCNC(=N)N)C(=O)N[C@@H](Cc1ccc(O)cc1)C(=O)N[C@@H](CSC1CC(=O)N(CCNC(=O)CCCCCN2C(=C/C=C/C=C/C3=[N+](CCCCS(=O)(=O)O)c4ccc(S(=O)(=O)[O-])cc4C3(C)C)C(C)(C)c3cc(S(=O)(=O)O)ccc32)C1=O)C(N)=O)[C@@H](C)O)C(C)C)C(C)C)[C@@H](C)O)C(C)C)[C@@H](C)O)C(C)C (stereo partly drawn) [Cy5-P0_101–125] (Ac-KNPPDIVGKTSQVTLYVFEKVPTRYC(X2)-NH2)
- solubility thermodynamic (Solubility in H2O): 172 µM (≈ 673 µg/mL)
- logP [3]: -1.39 ± 0.09
- Serum protein binding (Serum protein binding): 89% ± 2%
- degradation when incubated with glutathione ([4]; 6 hr at 37 °C): 8%
- remaining at 6 h ([4]; buffer or solvent, 37 °C water bath, stock in H2O, HPLC UV/Vis): 92%
- remaining at 24 h [5]: 99%
